Assay results reported in PubChem BioAssay (NCI).
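Dose response: 5 concentrations. Exposure: 48 h. Format: 96-well plates. Endpoint: linear interpolation; highest concentration if not reached. TGI: concentration producing complete growth inhibition.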

The compounds below were run on HOP-62 NSCLC (assay: NCI-60 cell line screen, 48 h).

SMILES	TGI
C[C@@H](NC(=O)[C@@H]1C[C@]1(C)COC(=O)c1cc([N+](=O)[O-])cc([N+](=O)[O-])c1)c1cccc2ccccc12	> 100 µM

What follows are compounds tested on HOP-92 NSCLC (assay: NCI-60 cell line screen, 48 h).

SMILES	TGI
CC(C)(C)OC(=O)NCCCCC1NC(=O)[C@@H]2Cc3c([nH]c4ccccc34)C(C3CCCCC3)N2C1=O (some centres not stated)	> 100 µM
CC(C)(C)N1CSC(=S)N(Cc2ccco2)C1	12.1 µM
c1ccc(-c2nc(-c3ccccc3SSc3ccccc3-c3nc(-c4ccccc4)nn3-c3ccccc3)n(-c3ccccc3)n2)cc1	> 100 µM
Cc1nc2n(c1/C=C1/C(=O)Nc3cccc(Cl)c31)CCS2	66.8 µM
C[C@@H](NC(=O)[C@@H]1C[C@]1(C)COC(=O)c1cc([N+](=O)[O-])cc([N+](=O)[O-])c1)c1cccc2ccccc12	> 100 µM

These compounds were tested on HS 578T breast (assay: NCI-60 cell line screen, 48 h).

SMILES	TGI
CC(C)(C)OC(=O)NCCCCC1NC(=O)[C@@H]2Cc3c([nH]c4ccccc34)C(C3CCCCC3)N2C1=O (some centres not stated)	> 100 µM
CC(C)(C)N1CSC(=S)N(Cc2ccco2)C1	26.1 µM
CC1(C)N=[N+]([O-])C1(C)C	> 100 µM
[N-]=[N+]=NC[C@H]1OCO[C@H](CN=[N+]=[N-])[C@@H](OCCOCCCl)[C@@H]1OCCOCCCl	> 100 µM
c1ccc(-c2nc(-c3ccccc3SSc3ccccc3-c3nc(-c4ccccc4)nn3-c3ccccc3)n(-c3ccccc3)n2)cc1	> 100 µM
Cc1nc2n(c1/C=C1/C(=O)Nc3cccc(Cl)c31)CCS2	53.9 µM
C[C@@H](NC(=O)[C@@H]1C[C@]1(C)COC(=O)c1cc([N+](=O)[O-])cc([N+](=O)[O-])c1)c1cccc2ccccc12	> 100 µM

These compounds were tested on HT29 colon (assay: NCI-60 cell line screen, 48 h).

SMILES	TGI
CC(C)(C)OC(=O)NCCCCC1NC(=O)[C@@H]2Cc3c([nH]c4ccccc34)C(C3CCCCC3)N2C1=O (some centres not stated)	> 100 µM
CC(C)(C)N1CSC(=S)N(Cc2ccco2)C1	13.8 µM
CC1(C)N=[N+]([O-])C1(C)C	> 100 µM
[N-]=[N+]=NC[C@H]1OCO[C@H](CN=[N+]=[N-])[C@@H](OCCOCCCl)[C@@H]1OCCOCCCl	> 100 µM
Cc1nc2n(c1/C=C1/C(=O)Nc3cccc(Cl)c31)CCS2	> 100 µM
C[C@@H](NC(=O)[C@@H]1C[C@]1(C)COC(=O)c1cc([N+](=O)[O-])cc([N+](=O)[O-])c1)c1cccc2ccccc12	> 100 µM

The compounds below were run on IGROV1 ovarian (assay: NCI-60 cell line screen, 48 h).

SMILES	TGI
CC(C)(C)OC(=O)NCCCCC1NC(=O)[C@@H]2Cc3c([nH]c4ccccc34)C(C3CCCCC3)N2C1=O (some centres not stated)	> 100 µM
CC(C)(C)N1CSC(=S)N(Cc2ccco2)C1	12.6 µM
CC1(C)N=[N+]([O-])C1(C)C	> 100 µM
[N-]=[N+]=NC[C@H]1OCO[C@H](CN=[N+]=[N-])[C@@H](OCCOCCCl)[C@@H]1OCCOCCCl	> 100 µM
c1ccc(-c2nc(-c3ccccc3SSc3ccccc3-c3nc(-c4ccccc4)nn3-c3ccccc3)n(-c3ccccc3)n2)cc1	> 100 µM
Cc1nc2n(c1/C=C1/C(=O)Nc3cccc(Cl)c31)CCS2	> 100 µM
C[C@@H](NC(=O)[C@@H]1C[C@]1(C)COC(=O)c1cc([N+](=O)[O-])cc([N+](=O)[O-])c1)c1cccc2ccccc12	> 100 µM

The compounds below were run on K-562 leukemia (assay: NCI-60 cell line screen, 48 h).

SMILES	TGI
CC(C)(C)OC(=O)NCCCCC1NC(=O)[C@@H]2Cc3c([nH]c4ccccc34)C(C3CCCCC3)N2C1=O (some centres not stated)	> 100 µM
CC(C)(C)N1CSC(=S)N(Cc2ccco2)C1	13.3 µM
CC1(C)N=[N+]([O-])C1(C)C	> 100 µM
[N-]=[N+]=NC[C@H]1OCO[C@H](CN=[N+]=[N-])[C@@H](OCCOCCCl)[C@@H]1OCCOCCCl	> 100 µM
c1ccc(-c2nc(-c3ccccc3SSc3ccccc3-c3nc(-c4ccccc4)nn3-c3ccccc3)n(-c3ccccc3)n2)cc1	> 100 µM
Cc1nc2n(c1/C=C1/C(=O)Nc3cccc(Cl)c31)CCS2	> 100 µM
C[C@@H](NC(=O)[C@@H]1C[C@]1(C)COC(=O)c1cc([N+](=O)[O-])cc([N+](=O)[O-])c1)c1cccc2ccccc12	> 100 µM

What follows are compounds tested on KM12 colon (assay: NCI-60 cell line screen, 48 h).

SMILES	TGI
CC(C)(C)OC(=O)NCCCCC1NC(=O)[C@@H]2Cc3c([nH]c4ccccc34)C(C3CCCCC3)N2C1=O (some centres not stated)	> 100 µM
CC(C)(C)N1CSC(=S)N(Cc2ccco2)C1	14.3 µM
CC1(C)N=[N+]([O-])C1(C)C	> 100 µM
[N-]=[N+]=NC[C@H]1OCO[C@H](CN=[N+]=[N-])[C@@H](OCCOCCCl)[C@@H]1OCCOCCCl	> 100 µM
c1ccc(-c2nc(-c3ccccc3SSc3ccccc3-c3nc(-c4ccccc4)nn3-c3ccccc3)n(-c3ccccc3)n2)cc1	> 100 µM
Cc1nc2n(c1/C=C1/C(=O)Nc3cccc(Cl)c31)CCS2	> 100 µM
C[C@@H](NC(=O)[C@@H]1C[C@]1(C)COC(=O)c1cc([N+](=O)[O-])cc([N+](=O)[O-])c1)c1cccc2ccccc12	> 100 µM

What follows are compounds tested on LOX IMVI melanoma (assay: NCI-60 cell line screen, 48 h).

SMILES	TGI
CC(C)(C)OC(=O)NCCCCC1NC(=O)[C@@H]2Cc3c([nH]c4ccccc34)C(C3CCCCC3)N2C1=O (some centres not stated)	> 100 µM
CC(C)(C)N1CSC(=S)N(Cc2ccco2)C1	14.6 µM
CC1(C)N=[N+]([O-])C1(C)C	> 100 µM
[N-]=[N+]=NC[C@H]1OCO[C@H](CN=[N+]=[N-])[C@@H](OCCOCCCl)[C@@H]1OCCOCCCl	> 100 µM
c1ccc(-c2nc(-c3ccccc3SSc3ccccc3-c3nc(-c4ccccc4)nn3-c3ccccc3)n(-c3ccccc3)n2)cc1	> 100 µM
Cc1nc2n(c1/C=C1/C(=O)Nc3cccc(Cl)c31)CCS2	> 100 µM
C[C@@H](NC(=O)[C@@H]1C[C@]1(C)COC(=O)c1cc([N+](=O)[O-])cc([N+](=O)[O-])c1)c1cccc2ccccc12	> 100 µM

What follows are compounds tested on M14 melanoma (assay: NCI-60 cell line screen, 48 h).

SMILES	TGI
CC(C)(C)OC(=O)NCCCCC1NC(=O)[C@@H]2Cc3c([nH]c4ccccc34)C(C3CCCCC3)N2C1=O (some centres not stated)	> 100 µM
CC(C)(C)N1CSC(=S)N(Cc2ccco2)C1	11.8 µM
CC1(C)N=[N+]([O-])C1(C)C	> 100 µM
[N-]=[N+]=NC[C@H]1OCO[C@H](CN=[N+]=[N-])[C@@H](OCCOCCCl)[C@@H]1OCCOCCCl	> 100 µM
c1ccc(-c2nc(-c3ccccc3SSc3ccccc3-c3nc(-c4ccccc4)nn3-c3ccccc3)n(-c3ccccc3)n2)cc1	> 100 µM
Cc1nc2n(c1/C=C1/C(=O)Nc3cccc(Cl)c31)CCS2	> 100 µM
C[C@@H](NC(=O)[C@@H]1C[C@]1(C)COC(=O)c1cc([N+](=O)[O-])cc([N+](=O)[O-])c1)c1cccc2ccccc12	> 100 µM

These compounds were tested on MALME-3M melanoma (assay: NCI-60 cell line screen, 48 h).

SMILES	TGI
CC(C)(C)OC(=O)NCCCCC1NC(=O)[C@@H]2Cc3c([nH]c4ccccc34)C(C3CCCCC3)N2C1=O (some centres not stated)	> 100 µM
CC(C)(C)N1CSC(=S)N(Cc2ccco2)C1	16.6 µM
CC1(C)N=[N+]([O-])C1(C)C	> 100 µM
[N-]=[N+]=NC[C@H]1OCO[C@H](CN=[N+]=[N-])[C@@H](OCCOCCCl)[C@@H]1OCCOCCCl	> 100 µM
c1ccc(-c2nc(-c3ccccc3SSc3ccccc3-c3nc(-c4ccccc4)nn3-c3ccccc3)n(-c3ccccc3)n2)cc1	> 100 µM
Cc1nc2n(c1/C=C1/C(=O)Nc3cccc(Cl)c31)CCS2	> 100 µM
C[C@@H](NC(=O)[C@@H]1C[C@]1(C)COC(=O)c1cc([N+](=O)[O-])cc([N+](=O)[O-])c1)c1cccc2ccccc12	51 µM

The compounds below were run on MCF7 breast (assay: NCI-60 cell line screen, 48 h).

SMILES	TGI
CC(C)(C)OC(=O)NCCCCC1NC(=O)[C@@H]2Cc3c([nH]c4ccccc34)C(C3CCCCC3)N2C1=O (some centres not stated)	> 100 µM
CC(C)(C)N1CSC(=S)N(Cc2ccco2)C1	14.3 µM
CC1(C)N=[N+]([O-])C1(C)C	> 100 µM
[N-]=[N+]=NC[C@H]1OCO[C@H](CN=[N+]=[N-])[C@@H](OCCOCCCl)[C@@H]1OCCOCCCl	> 100 µM
c1ccc(-c2nc(-c3ccccc3SSc3ccccc3-c3nc(-c4ccccc4)nn3-c3ccccc3)n(-c3ccccc3)n2)cc1	> 100 µM
Cc1nc2n(c1/C=C1/C(=O)Nc3cccc(Cl)c31)CCS2	> 100 µM
C[C@@H](NC(=O)[C@@H]1C[C@]1(C)COC(=O)c1cc([N+](=O)[O-])cc([N+](=O)[O-])c1)c1cccc2ccccc12	> 100 µM

What follows are compounds tested on MDA-MB-231 breast (assay: NCI-60 cell line screen, 48 h).

SMILES	TGI
CC(C)(C)OC(=O)NCCCCC1NC(=O)[C@@H]2Cc3c([nH]c4ccccc34)C(C3CCCCC3)N2C1=O (some centres not stated)	> 100 µM
CC1(C)N=[N+]([O-])C1(C)C	> 100 µM
[N-]=[N+]=NC[C@H]1OCO[C@H](CN=[N+]=[N-])[C@@H](OCCOCCCl)[C@@H]1OCCOCCCl	> 100 µM
c1ccc(-c2nc(-c3ccccc3SSc3ccccc3-c3nc(-c4ccccc4)nn3-c3ccccc3)n(-c3ccccc3)n2)cc1	> 100 µM
Cc1nc2n(c1/C=C1/C(=O)Nc3cccc(Cl)c31)CCS2	52.5 µM
C[C@@H](NC(=O)[C@@H]1C[C@]1(C)COC(=O)c1cc([N+](=O)[O-])cc([N+](=O)[O-])c1)c1cccc2ccccc12	> 100 µM

What follows are compounds tested on MDA-MB-435 (assay: NCI-60 cell line screen, 48 h).

SMILES	TGI
CC(C)(C)OC(=O)NCCCCC1NC(=O)[C@@H]2Cc3c([nH]c4ccccc34)C(C3CCCCC3)N2C1=O (some centres not stated)	> 100 µM
CC(C)(C)N1CSC(=S)N(Cc2ccco2)C1	13.4 µM
CC1(C)N=[N+]([O-])C1(C)C	> 100 µM
[N-]=[N+]=NC[C@H]1OCO[C@H](CN=[N+]=[N-])[C@@H](OCCOCCCl)[C@@H]1OCCOCCCl	> 100 µM
c1ccc(-c2nc(-c3ccccc3SSc3ccccc3-c3nc(-c4ccccc4)nn3-c3ccccc3)n(-c3ccccc3)n2)cc1	> 100 µM
Cc1nc2n(c1/C=C1/C(=O)Nc3cccc(Cl)c31)CCS2	> 100 µM
C[C@@H](NC(=O)[C@@H]1C[C@]1(C)COC(=O)c1cc([N+](=O)[O-])cc([N+](=O)[O-])c1)c1cccc2ccccc12	> 100 µM

What follows are compounds tested on MDA-N (assay: NCI-60 cell line screen, 48 h).

SMILES	TGI
CC(C)(C)OC(=O)NCCCCC1NC(=O)[C@@H]2Cc3c([nH]c4ccccc34)C(C3CCCCC3)N2C1=O (some centres not stated)	> 100 µM
CC(C)(C)N1CSC(=S)N(Cc2ccco2)C1	16.5 µM
CC1(C)N=[N+]([O-])C1(C)C	> 100 µM
[N-]=[N+]=NC[C@H]1OCO[C@H](CN=[N+]=[N-])[C@@H](OCCOCCCl)[C@@H]1OCCOCCCl	> 100 µM
c1ccc(-c2nc(-c3ccccc3SSc3ccccc3-c3nc(-c4ccccc4)nn3-c3ccccc3)n(-c3ccccc3)n2)cc1	> 100 µM
Cc1nc2n(c1/C=C1/C(=O)Nc3cccc(Cl)c31)CCS2	> 100 µM
C[C@@H](NC(=O)[C@@H]1C[C@]1(C)COC(=O)c1cc([N+](=O)[O-])cc([N+](=O)[O-])c1)c1cccc2ccccc12	> 100 µM

These compounds were tested on MOLT-4 leukemia (assay: NCI-60 cell line screen, 48 h).

SMILES	TGI
CC(C)(C)OC(=O)NCCCCC1NC(=O)[C@@H]2Cc3c([nH]c4ccccc34)C(C3CCCCC3)N2C1=O (some centres not stated)	44.9 µM
CC(C)(C)N1CSC(=S)N(Cc2ccco2)C1	5.72 µM
CC1(C)N=[N+]([O-])C1(C)C	> 100 µM
[N-]=[N+]=NC[C@H]1OCO[C@H](CN=[N+]=[N-])[C@@H](OCCOCCCl)[C@@H]1OCCOCCCl	> 100 µM
c1ccc(-c2nc(-c3ccccc3SSc3ccccc3-c3nc(-c4ccccc4)nn3-c3ccccc3)n(-c3ccccc3)n2)cc1	> 100 µM
Cc1nc2n(c1/C=C1/C(=O)Nc3cccc(Cl)c31)CCS2	> 100 µM
C[C@@H](NC(=O)[C@@H]1C[C@]1(C)COC(=O)c1cc([N+](=O)[O-])cc([N+](=O)[O-])c1)c1cccc2ccccc12	> 100 µM

These compounds were tested on NCI-H226 lung (assay: NCI-60 cell line screen, 48 h).

SMILES	TGI
CC(C)(C)OC(=O)NCCCCC1NC(=O)[C@@H]2Cc3c([nH]c4ccccc34)C(C3CCCCC3)N2C1=O (some centres not stated)	> 100 µM
CC(C)(C)N1CSC(=S)N(Cc2ccco2)C1	41.4 µM
